Results from ChEMBL document CHEMBL3046289, “Synthesis and in vitro antimicrobial activity of some newer quinazolinonesulfonamide linked hybrid heterocyclic entities derived from glycine” (2013).
Converted amounts (≈) assume the structure as drawn.

How the values were obtained:
Type in all cases: functional
Aspergillus niger = assay: Antifungal activity against Aspergillus niger MTCC 282 assessed as growth inhibition after 48 hr by broth microdilution method; details: MTCC 282, 48 h
Candida albicans = assay: Antifungal activity against Candida albicans MTCC 227 assessed as growth inhibition after 48 hr by broth microdilution method; details: MTCC 227, 48 h
Bacillus cereus = assay: Antibacterial activity against Bacillus cereus MTCC 1305 assessed as growth inhibition after 24 hr by broth microdilution method; details: MTCC 1305, 24 h
Staphylococcus aureus = assay: Antibacterial activity against Staphylococcus aureus MTCC 2940 assessed as growth inhibition after 24 hr by broth microdilution method; details: MTCC 2940, 24 h
Pseudomonas aeruginosa = assay: Antibacterial activity against Pseudomonas aeruginosa MTCC 1688 assessed as growth inhibition after 24 hr by broth microdilution method; details: MTCC 1688, 24 h
Escherichia coli = assay: Antibacterial activity against Escherichia coli MTCC 443 assessed as growth inhibition after 24 hr by broth microdilution method; details: MTCC 443, 24 h
Klebsiella pneumoniae = assay: Antibacterial activity against Klebsiella pneumoniae MTCC 139 assessed as growth inhibition after 24 hr by broth microdilution method; details: MTCC 139, 24 h

SMILES: COc1ccccc1-n1c(CNS(=O)(=O)c2ccc(N)cc2)nc2ccccc2c1=O
- MIC (Aspergillus niger): 55 µg/mL (≈ 126 µM)
- MIC (Candida albicans): 65 µg/mL (≈ 149 µM)
- MIC (Bacillus cereus): 80 µg/mL (≈ 183 µM)
- MIC (Staphylococcus aureus): 85 µg/mL (≈ 195 µM)
- MIC (Pseudomonas aeruginosa): 80 µg/mL (≈ 183 µM)
- MIC (Escherichia coli): 65 µg/mL (≈ 149 µM)
- MIC (Klebsiella pneumoniae): 95 µg/mL (≈ 218 µM)

SMILES: Nc1ccc(S(=O)(=O)NCc2nc3ccccc3c(=O)n2-c2ccccc2Br)cc1
- MIC (Aspergillus niger): 45 µg/mL (≈ 92.7 µM)
- MIC (Candida albicans): 55 µg/mL (≈ 113 µM)
- MIC (Bacillus cereus): 70 µg/mL (≈ 144 µM)
- MIC (Staphylococcus aureus): 55 µg/mL (≈ 113 µM)
- MIC (Pseudomonas aeruginosa): 65 µg/mL (≈ 134 µM)
- MIC (Escherichia coli): 55 µg/mL (≈ 113 µM)
- MIC (Klebsiella pneumoniae): 85 µg/mL (≈ 175 µM)

SMILES: COc1cccc(-n2c(CNS(=O)(=O)c3ccc(N)cc3)nc3ccccc3c2=O)c1
- MIC (Aspergillus niger): 50 µg/mL (≈ 115 µM)
- MIC (Candida albicans): 50 µg/mL (≈ 115 µM)
- MIC (Bacillus cereus): 75 µg/mL (≈ 172 µM)
- MIC (Staphylococcus aureus): 80 µg/mL (≈ 183 µM)
- MIC (Pseudomonas aeruginosa): 85 µg/mL (≈ 195 µM)
- MIC (Escherichia coli): 60 µg/mL (≈ 137 µM)
- MIC (Klebsiella pneumoniae): 90 µg/mL (≈ 206 µM)

SMILES: CC(=O)Nc1ccc(S(=O)(=O)NCc2nc3ccccc3c(=O)n2-c2ccccc2C)cc1
- MIC (Aspergillus niger): 80 µg/mL (≈ 173 µM)
- MIC (Candida albicans): 90 µg/mL (≈ 195 µM)
- MIC (Bacillus cereus): 115 µg/mL (≈ 249 µM)
- MIC (Staphylococcus aureus): 100 µg/mL (≈ 216 µM)
- MIC (Pseudomonas aeruginosa): 120 µg/mL (≈ 259 µM)
- MIC (Escherichia coli): 90 µg/mL (≈ 195 µM)
- MIC (Klebsiella pneumoniae): 125 µg/mL (≈ 270 µM)
